# Tested on: female Wistar rats
# Assay: Hypovolemic shock produced by bleeding in anesthetized rats, intravenous bolus of the polypeptides
# Assay type: in vivo, rat
# Details: for MEAN ARTERIAL PRESSURE 15-30 min. After bleeding: mean ± S.E.
# Experimental: Intact and adrenalectomized female Wistar rats (Nossan, Correzzano, Milano, Italy) weighing 250 to 300 g were used. Following anesthetization and heparinization a common carotid artery and an iliac vein were cannulated in rats. Arterial blood pressure was recorded by means of a pressure transducer (Statham P23 Db) connected to a polygraph (Battaglia-Rangoni, Bologna, Italy). […] Hypovolemic shock was produced by intermittently withdrawing blood from the venous catheter until mean arterial pressure fell to 10-25 mm Hg. […] Following bleeding and mean blood pressure stabilization in the range of 10-25 mm Hg, animals were given intravenous bolus of the polypeptides. Control animals were intravenously injected with the same volume of saline (0.1 ml/100 g).
substance,measurement,setting,value
CCK8,No. of deaths 120 min. after treatment,"5 μg/kg i.v. after bleeding, 6 rats used (saline: 12 of 12 died)",2
same,MEAN ARTERIAL PRESSURE 15-30 min. After bleeding,"5 μg/kg i.v. after bleeding, 6 rats, before bleeding 71.17 ± 6.07, after bleeding 11.83 ± 0.79, P < 0.05 versus value after bleeding",26.33 ± 7.05 mm Hg
same,No. of deaths 120 min. after treatment,"10 μg/kg i.v. after bleeding, 5 rats used (saline: 12 of 12 died)",0
same,MEAN ARTERIAL PRESSURE 15-30 min. After bleeding,"10 μg/kg i.v. after bleeding, 5 rats, before bleeding 68.40 ± 4.98, after bleeding 14.00 ± 1.82, P < 0.01 versus value after bleeding",41.80 ± 3.79 mm Hg
same,No. of deaths 120 min. after treatment,"20 μg/kg i.v. after bleeding, 5 rats used (saline: 12 of 12 died)",0
same,MEAN ARTERIAL PRESSURE 15-30 min. After bleeding,"20 μg/kg i.v. after bleeding, 5 rats, before bleeding 72.00 ± 4.67, after bleeding 14.40 ± 0.87, P < 0.01 versus value after bleeding",52.40 ± 2.73 mm Hg
cerulein,No. of deaths 120 min. after treatment,"20 μg/kg i.v. after bleeding, 6 rats used (saline: 12 of 12 died)",0
same,MEAN ARTERIAL PRESSURE 15-30 min. After bleeding,"20 μg/kg i.v. after bleeding, 6 rats, before bleeding 75.17 ± 6.62, after bleeding 12.17 ± 1.11, P < 0.01 versus value after bleeding",54.67 ± 4.29 mm Hg

# From patent US4794103A, “Pharmaceutical compositions containing peptides of the cholecystokinin-cerulein group for the therapy of shock conditions and of respiratory and cardiocirculatory insufficiencies” (priority 1986, dated 1988)
